Patent US11744899B2, “Pharmaceutical composition containing a hyaluronic acid derivative” (SEIKAGAKU CORPORATION, priority 2018, dated 2023)

Experiments:
[1] = Storage test (1-1) using 50 mM phosphate buffer solution (pH 6.5); format: physicochemical; settings: additional component 5 wt %; 1.0 wt % hyaluronic acid derivative, 50 mM phosphate buffer pH 6.5, 1 week at 60° C., HPLC; control solution = 1
Description: (§1) 1.5 g of the hyaluronic acid derivative of the above Synthesis Example and 98.5 g of each of the various buffer solutions prepared above were mixed and stirred for 2 hours in a water bath at 70° C., whereby a 1.5 wt % hyaluronic acid derivative solution was prepared.
(§2) Additional component aqueous solutions to be added to the hyaluronic acid derivative solution were prepared using various additional components and WFI so that the concentration of each component is three times as high as the final concentration (wt %).
(§3) 2.0 g of the 1.5 wt % hyaluronic acid derivative solution prepared above and 1.0 g of the additional component aqueous solution were mixed, whereby a test sample (final concentration of hyaluronic acid derivative: 1.0 wt %) was prepared.
(§4) The test samples prepared above containing each of the various buffer solutions (50 mM phosphate buffer solution, 10 mM citrate buffer solution, 10 mM acetate buffer solution, or 30 mM acetate buffer solution) were subjected to a storage test.
(§5) Each of the test samples was stored for 1 week in a thermostat chamber at 60° C., and thereafter, the accumulation amount of each of diclofenac and diclofenac lactam was measured by HPLC.
(§6) The amount of diclofenac and the amount of diclofenac lactam were calculated as relative values when each of the amount of diclofenac and the amount of diclofenac lactam present in the control solution (1 wt % hyaluronic acid derivative solution) after being stored for 1 week at 60° C. was assumed to be 1.
(§7) Each of the prepared various test samples was filled in a screw vial (AS ONE Corporation, Cat No. 3-1599-01) and left to stand at 60° C. for 1 week. The amount of diclofenac and the amount of diclofenac lactam present in the solution after being left to stand were quantitatively analyzed by HPLC.
(§8) The HPLC conditions are as follows.
(§9) The elution time of each of diclofenac and diclofenac lactam was determined by performing measurement in advance using a standard substance.

[2] = Storage test (1-2) using 10 mM citrate buffer solution (pH 5.1); format: physicochemical; settings: after storage, 1.0 wt % hyaluronic acid derivative, 10 mM citrate buffer pH 5.1, 1 week at 60° C.
Description: A citric acid aqueous solution having a citric acid concentration of 15 mM and a trisodium citrate aqueous solution having a citrate concentration of 15 mM were mixed at a ratio (volume ratio) of 27:37, whereby a citrate buffer solution was prepared. The pH of the citrate buffer solution after preparation was 5.1.
as §1, §2, §3, §4, §5, §6, §7, §8, §9
As the additional component, creatinine (1 wt %), sodium deoxycholate (5 wt %), 1,2,3-butanetriol (5 wt %), PEG 400 (6.3 wt % or 16.5 wt %), PEG 600 (10 wt %), PEG 4000 (10 wt %), PEG 6000 (10 wt %), SDS (5 wt %), Triton X-100 (5 wt %), ethanol (26 wt %), octyl glucoside (5 wt %), glucuronolactone (0.1 wt %), chlorogenic acid (0.1 wt %), propylene glycol (10 wt %), polysorbate 20 (5 wt %), or polyvinylpyrrolidone (5 wt %) was used.
Similarly, as the additional component, additional components of a two-component system of PEG 3350 (10.6 wt %) and polysorbate 80 (3 wt %), or PEG 3350 (6.0 wt %) and hydroxypropyl-β-cyclodextrin (10 wt %), or additional components of a three-component system of PEG 3350 (5.5 wt %), polysorbate 80 (1 wt %) and hydroxypropyl-β-cyclodextrin (10 wt %) were used.

[3] = Storage test (1-3) using 30 mM acetate buffer solution (pH 5.1); format: physicochemical; settings: 1.0 wt % hyaluronic acid derivative, 30 mM acetate buffer pH 5.1, 1 week at 60° C., HPLC, control solution = 1
Description: (§10) An acetic acid aqueous solution having an acetic acid concentration of 15 mM and a sodium acetate aqueous solution having an acetate concentration of 15 mM were mixed at a ratio (volume ratio) of 1:3, whereby an acetate buffer solution was prepared. The pH of the acetate buffer solution after preparation was 5.1. In addition, an acetate buffer solution having an acetic acid concentration of 45 mM and a pH of 5.1 was prepared in a similar manner.
as §1, §2, §3, §4, §5, §6, §7, §8, §9
As the additional component, propyl gallate (1.5 wt %), any one of lactic acid anhydrous (1.5 wt %), hydroxypropyl cellulose (1.5 wt %), starch (1.5 wt %), dextran (5 wt %), sucrose (5 wt %), sodium saccharinate dihydrate (5 wt %), glycine (5 wt %), sodium aspartate (1.5 wt %), L-leucine (1.5 wt %), L-phenylalanine (5 wt %), L-serine (5 wt %), D-mannitol (1.5 wt %), D-sorbitol (5 wt %), hydroxypropyl-β-cyclodextrin (3 wt %, 5 wt %, 10 wt %, or 15 wt %), and ethanol (5 wt %, 10 wt %, 20 wt %, or 26.3 wt %) was used.

[4] = Evaluation of filterability of aqueous composition (Vmax); format: physicochemical; settings: 1.0 wt % hyaluronic acid derivative, acetate buffer pH 5.1, 0.22 μm PVDF membrane, 0.6 MPa, 70° C.
Description: The calculation of the maximum treatment amount (Vmax) is more specifically performed as follows. That is, the aqueous composition at a liquid temperature of 70° C. is filtered under a pressure of 0.6 MPa using a polyvinylidene fluoride filtration membrane with a pore size of 0.22 μm. At that time, the total filtration amount per effective filtration area (V) of the filtration membrane is measured every 30 seconds until the flow rate (Q) becomes 1/10 or less of the flow rate at the start of filtration. By plotting the measurement results with the filtration time (t) along the horizontal axis and t/V along the vertical axis, the following formula A is calculated within a range of the measurement point where the transition of t/V is stable. The maximum treatment amount (Vmax) is determined from the reciprocal of the slope a of the calculation formula A (that is, the following calculation formula B). Note that the flow rate (Q) is the filtration amount per unit time (that is, Q=dV/dt).
The hyaluronic acid derivative prepared above and the 15 mM acetate buffer solution (pH 5.1) prepared above were mixed and stirred, and then, defoamed by being left to stand, whereby a 1.5 wt % hyaluronic acid derivative solution was prepared.
150.0 g of the 1.5 wt % hyaluronic acid derivative solution prepared above and 75.0 g of an additional component aqueous solution were mixed, whereby a test sample (final concentration of hyaluronic acid derivative: 1.0 wt %) was prepared.
In addition, a control solution in which 75.0 g of WFI was mixed in place of the additional component aqueous solution was also prepared.
To a stainless steel pressure filter holder in which a polyvinylidene fluoride (PVDF) membrane (47 mm in diameter, effective filtration area: 13.8 cm^2, manufactured by Merck & Co.) with a pore size of 0.22 μm was set, 200 mL of the test sample prepared above was added and pressure was applied at 0.6 MPa at 70° C. The amount of liquid passing through the filter was weighed every 30 seconds, and the maximum treatment amount (Vmax) was calculated from the relationship between the elapsed time and the total filtration amount.

[5] = Storage test (1-4) using 10 mM acetate buffer solution (pH 5.1); format: physicochemical; settings: additional component 5 wt %; 1.0 wt % hyaluronic acid derivative, 10 mM acetate buffer pH 5.1, 1 week at 60° C., HPLC; control solution = 1
Description: as §10, with “manner. […]” for “manner.”
as §5, §6
as §7, with “HPLC. […]” for “HPLC.”
as §9

Cox-2 = molecular target: T1, Cox-2 (Homo sapiens, UniProt P35354); experiment: Cox-2 inhibitory activity; format: biochemical; settings: ratio to diclofenac
T1 sequence (P35354 18-604): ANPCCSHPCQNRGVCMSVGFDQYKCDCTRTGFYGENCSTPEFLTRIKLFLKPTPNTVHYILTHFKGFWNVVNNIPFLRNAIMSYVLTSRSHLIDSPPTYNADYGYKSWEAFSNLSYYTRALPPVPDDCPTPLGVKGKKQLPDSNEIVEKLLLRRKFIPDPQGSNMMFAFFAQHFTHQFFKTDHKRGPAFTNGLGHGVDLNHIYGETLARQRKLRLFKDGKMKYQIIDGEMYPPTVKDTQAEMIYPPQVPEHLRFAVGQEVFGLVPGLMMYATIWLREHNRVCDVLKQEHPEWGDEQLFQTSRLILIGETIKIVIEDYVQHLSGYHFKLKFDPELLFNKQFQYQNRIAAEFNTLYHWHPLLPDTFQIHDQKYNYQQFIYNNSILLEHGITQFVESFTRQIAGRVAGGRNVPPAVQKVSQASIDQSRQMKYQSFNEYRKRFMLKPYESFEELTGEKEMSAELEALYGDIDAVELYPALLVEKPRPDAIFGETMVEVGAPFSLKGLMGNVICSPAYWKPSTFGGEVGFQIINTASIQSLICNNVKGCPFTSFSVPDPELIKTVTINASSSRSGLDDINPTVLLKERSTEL

## COc1ccc(O)c(C(C)(C)C)c1 [butylhydroxyanisole]
[1]
  Dic amount: the relative value of the amount of diclofenac: 0.99

## O=C(/C=C/c1ccc(O)c(O)c1)O[C@@H]1C[C@](O)(C(=O)O)C[C@@H](O)[C@H]1O [chlorogenic acid]
[2]; additional component 0.1 wt %
  Solution properties: light yellow and clear

## CC(O)CO (centres unmarked) [propylene glycol]
[2]; additional component 10 wt %
  Solution properties: colorless and slightly turbid

## octylphenol ethoxylate [Triton X-100]
[2]; additional component 5 wt %
  Solution properties: colorless and clear

## hydroxypropyl-β-cyclodextrin [HP-β-CD]
[3]; additional component 3 wt %
  Dic amount: the relative value of the amount of diclofenac: 0.62
  Lac amount: the relative value of the amount of diclofenac lactam: 0.45
[3]; additional component 5 wt %
  Dic amount: the relative value of the amount of diclofenac: 0.54
  Lac amount: the relative value of the amount of diclofenac lactam: 0.34
[3]; additional component 10 wt %
  Dic amount: the relative value of the amount of diclofenac: 0.44
  Lac amount: the relative value of the amount of diclofenac lactam: 0.23
[3]; additional component 15 wt %
  Dic amount: the relative value of the amount of diclofenac: 0.36
  Lac amount: the relative value of the amount of diclofenac lactam: 0.17
[4]; additional component 5 wt %
  Maximum treatment amount: 8.3 g/cm^2
[4]; additional component 10 wt %
  Maximum treatment amount: 10.4 g/cm^2

## polysorbate 20
[2]; additional component 5 wt %
  Solution properties: colorless and clear

## hydroxyethyl-β-cyclodextrin [HE-β-CD]
[5]
  Dic amount: the relative value of the amount of diclofenac: 0.63
  Lac amount: the relative value of the amount of diclofenac lactam: 0.34

## O=C[C@H](O)[C@H]1OC(=O)[C@@H](O)[C@H]1O [glucuronolactone]
[2]; additional component 0.1 wt %
  Solution properties: slightly yellow and clear

## CCCCCCCCO[C@@H]1O[C@H](CO)[C@@H](O)[C@H](O)[C@H]1O [octyl glucoside]
[2]; additional component 5 wt %
  Solution properties: colorless and clear

## CCCCCCCCCCCCOS(=O)(=O)[O-].[Na+] [SDS, sodium dodecyl sulfate]
[2]; additional component 5 wt %
  Solution properties: colorless and clear

## O=C1Cc2ccccc2N1c1c(Cl)cccc1Cl [diclofenac lactam]
Cox-2
  Cox-2 inhibitory activity relative to that of diclofenac: about 1/100

## OCC(O)CO [glycerin]
[1]
  Dic amount: the relative value of the amount of diclofenac: 1.02

## CCO [ethanol]
[2]; additional component 26 wt %
  Solution properties: colorless and clear
[4]; additional component 5 wt %
  Maximum treatment amount: 10.3 g/cm^2
[4]; additional component 10 wt %
  Maximum treatment amount: 8.2 g/cm^2

## OC[C@H]1OC=C[C@@H](O)[C@@H]1O [D-glucal]
[1]
  Dic amount: the relative value of the amount of diclofenac: 1.15
